What was measured:
Assay in all cases: Post-emergence field trial in onion, visual weed control
Format in all cases: in vivo
[1] = system: hairy beggarticks (Bidens pilosa), BIDPI
Procedure: (§1) Multiple post-emergence field trials were conducted under field conditions in Colombia, Peru and Ecuador. Trial sites were located in commercially grown fields of onion (Allium spp) using standard herbicide small plot research methodology. Post-emergence trial plot size varied from 0.4 to 2 meter (m)×5 to 25 m (width×length) with 4 replicates per treatment. The onion crop was grown using normal cultural practices for fertilization, seeding, watering and maintenance to ensure good growth of the crop and the weeds.
(§2) All treatments in the post-emergence field trials were applied using a backpack compressed carbon dioxide (CO2) sprayer with flat fan nozzles calibrated to apply 400 liters per hectare (L/ha) spray volume at approximately 35 pounds per square inch (psi) nozzle pressure. Commercially available products of oxyfluorfen (GOAL® 480SC 480 grams active ingredient per liter (g ai/L) and haloxyfop-methyl (VERDICT R® 42 g ai/L) were mixed in water at appropriate formulated product rates to achieve the desired rates based on a unit area of application (hectare). Treatments were rated at 7 to 31 days after application (DAA) as compared to the untreated control plants. Visual weed control was scored on a scale of 0 to 100 percent where 0 corresponds to no injury and 100 corresponds to complete kill.
(§3) All treatment results, both for the single product and mixtures, are an average of 4 replicates. The trial sites had naturally occurring populations of weeds. The weed spectrum included, but was not limited to, AMBEL, BIDPI, BRSRA, GASPA, ELEIN, LOLTE, POANN, and SETVE.
(§4) Colby's equation was used to determine the herbicidal effects expected from the mixtures (Colby, S. R. Calculation of the synergistic and antagonistic response of herbicide combinations. Weeds 1967, 15, 20-22.).
(§5) The following equation was used to calculate the expected activity of mixtures containing two active ingredients, A and B:
(§6) A=observed efficacy of active ingredient A at the same concentration as used in the mixture.
(§7) B=observed efficacy of active ingredient B at the same concentration as used in the mixture.

[2] = system: poison ryegrass (Lolium temulentum), LOLTE; conditions: 15 days after application
Procedure: as §1, §2, §3, §4, §5, §6, §7

[3] = system: birdsrape mustard (Brassica rapa), BRSRA
Procedure: as §1, §2, §3, §4, §5, §6, §7

[4] = system: common ragweed (Ambrosia artemisiifolia L.), AMBEL; conditions: 15 days after application
Procedure: as §1, §2, §3, §4, §5, §6, §7

[5] = system: goosegrass (Eleusine indica), ELEIN; conditions: 7 days after application
Procedure: as §1, §2, §3, §4, §5, §6, §7

[6] = system: bristly foxtail (Setaria verticillata), SETVE; conditions: 7 days after application
Procedure: as §1, §2, §3, §4, §5, §6, §7

[7] = system: annual bluegrass (Poa annua L.), POAAN; conditions: 15 days after application
Procedure: as §1, §2, §3, §4, §5, §6, §7

[8] = system: smallflower galinsoga (Galinsoga parviflora), GASPA; conditions: 15 days after application
Procedure: as §1, §2, §3, §4, §5, §6, §7

[9] = 16 days after application, oxyfluorfen 120 g ai/ha, haloxyfop-methyl 0, foliar
[10] = 16 days after application, oxyfluorfen 240 g ai/ha, haloxyfop-methyl 0, foliar
[11] = 16 days after application, oxyfluorfen 360 g ai/ha, haloxyfop-methyl 0, foliar
[12] = 31 days after application, oxyfluorfen 120 g ai/ha, haloxyfop-methyl 0, foliar
[13] = 31 days after application, oxyfluorfen 240 g ai/ha, haloxyfop-methyl 0, foliar
[14] = 31 days after application, oxyfluorfen 360 g ai/ha, haloxyfop-methyl 0, foliar
[15] = oxyfluorfen 120 g ai/ha, haloxyfop-methyl 0, foliar
[16] = oxyfluorfen 240 g ai/ha, haloxyfop-methyl 0, foliar
[17] = oxyfluorfen 360 g ai/ha, haloxyfop-methyl 0, foliar
[18] = 16 days after application, oxyfluorfen 0, haloxyfop-methyl 42 g ai/ha, foliar
[19] = 31 days after application, oxyfluorfen 0, haloxyfop-methyl 42 g ai/ha, foliar
[20] = oxyfluorfen 0, haloxyfop-methyl 42 g ai/ha, foliar

With `CCOc1cc(Oc2ccc(C(F)(F)F)cc2Cl)ccc1[N+](=O)[O-]` [Oxyfluorfen, 2-chloro-1-(3-ethoxy-4-nitrophenoxy)-4-(trifluoromethyl)benzene] the “Visual Control (%) Obs” value [1, 9] was 49%, the “Visual Control (%) Obs” value [1, 10] was 56% and the “Visual Control (%) Obs” value [1, 11] was 69%. The “Visual Control (%) Obs” value [1, 12] was 54%, the “Visual Control (%) Obs” value [1, 13] was 61% and the “Visual Control (%) Obs” value [1, 14] was 69%. For the same compound, the “Visual Control (%) Obs” value [2, 15] was 21%, the “Visual Control (%) Obs” value [2, 16] was 22% and the “Visual Control (%) Obs” value [2, 17] was 22%. For the same compound, the “Visual Control (%) Obs” value [3, 9] was 70%, the “Visual Control (%) Obs” value [3, 10] was 74% and the “Visual Control (%) Obs” value [3, 11] was 85%. For the same compound, the “Visual Control (%) Obs” value [3, 12] was 74%, the “Visual Control (%) Obs” value [3, 13] was 79% and the “Visual Control (%) Obs” value [3, 14] was 86%. For the same compound, the “Visual Control (%) Obs” value [4, 15] was 21%, the “Visual Control (%) Obs” value [4, 16] was 22% and the “Visual Control (%) Obs” value [4, 17] was 22%. For the same compound, the “Visual Control (%) Obs” value [5, 17] was 47%, the “Visual Control (%) Obs” value [6, 17] was 70% and the “Visual Control (%) Obs” value [7, 15] was 45%. The “Visual Control (%) Obs” value [7, 16] was 45%, the “Visual Control (%) Obs” value [7, 17] was 47% and the “Visual Control (%) Obs” value [8, 15] was 49%. For the same compound, the “Visual Control (%) Obs” value [8, 16] was 47% and the “Visual Control (%) Obs” value [8, 17] was 45%.
`COC(=O)C(C)Oc1ccc(Oc2ncc(C(F)(F)F)cc2Cl)cc1` (stereo not drawn) [Haloxyfop-methyl] was tested, and the “Visual Control (%) Obs” value [1, 18] was 0%, the “Visual Control (%) Obs” value [1, 19] was 0% and the “Visual Control (%) Obs” value [2, 20] was 4%. For the same compound, the “Visual Control (%) Obs” value [3, 18] was 0%, the “Visual Control (%) Obs” value [3, 19] was 0% and the “Visual Control (%) Obs” value [4, 20] was 6%. For the same compound, the “Visual Control (%) Obs” value [5, 20] was 6%, the “Visual Control (%) Obs” value [6, 20] was 77% and the “Visual Control (%) Obs” value [7, 20] was 5%. For the same compound, the “Visual Control (%) Obs” value [8, 20] was 6%.

Source: patent US20180007899A1, “HERBICIDAL COMPOSITIONS COMPRISING OXYFLUORFEN AND HALOXYFOP” (Dow AgroSciences LLC, priority 2012, published 2018)
